# Test results from patent US20020055528A1, “Artemisinin analogs having antimalarial, antiproliferative, and antitumor activities and chemoselective methods of making the same” (priority 1999, published 2002).
# Legend:
# Type in all cases: cell-based
# HL-60(TB) = assay: NCI 60 cell line screen (SRB), Leukemia
# RPMI-8226 = assay: NCI 60 cell line screen (SRB), Leukemia
# EKVX = assay: NCI 60 cell line screen (SRB), Non-Small Cell Lung Cancer
# NCI-H226 = assay: as above
# NCI-H23 = assay: as above
# NCI-H322M = assay: as above
# NCI-H460 = assay: as above
# NCI-H522 = assay: as above
# COLO 205 = assay: NCI 60 cell line screen (SRB), Colon Cancer
# HCT-116 = assay: NCI 60 cell line screen (SRB), Colon Cancer
# HCT-15 = assay: NCI 60 cell line screen (SRB), Colon Cancer
# KM12 = assay: NCI 60 cell line screen (SRB), Colon Cancer
# SW-620 = assay: NCI 60 cell line screen (SRB), Colon Cancer
# HCC-2998 = assay: NCI 60 cell line screen (SRB), Colon Cancer
# SF-268 = assay: NCI 60 cell line screen (SRB), CNS Cancer
# SF-295 = assay: NCI 60 cell line screen (SRB), CNS Cancer
# SNB-75 = assay: NCI 60 cell line screen (SRB), CNS Cancer
# LOX IMVI = assay: NCI 60 cell line screen (SRB), Melanoma
# MALME-3M = assay: NCI 60 cell line screen (SRB), Melanoma
# UACC-62 = assay: NCI 60 cell line screen (SRB), Melanoma
# SK-MEL-5 = assay: NCI 60 cell line screen (SRB), Melanoma
# IGROVI = assay: NCI 60 cell line screen (SRB), Ovarian Cancer
# OVCAR-3 = assay: NCI 60 cell line screen (SRB), Ovarian Cancer; conditions: PG=0
# OVCAR-4 = assay: NCI 60 cell line screen (SRB), Ovarian Cancer
# OVCAR-5 = assay: NCI 60 cell line screen (SRB), Ovarian Cancer
# OVCAR-8 = assay: NCI 60 cell line screen (SRB), Ovarian Cancer
# SK-OV-3 = assay: NCI 60 cell line screen (SRB), Ovarian Cancer
# 786-0 = assay: NCI 60 cell line screen (SRB), Renal Cancer
# CAKI-1 = assay: NCI 60 cell line screen (SRB), Renal Cancer
# TK-10 = assay: NCI 60 cell line screen (SRB), Renal Cancer
# MCF7 = assay: NCI 60 cell line screen (SRB), Breast Cancer
# NCI/ADR-RES = assay: NCI 60 cell line screen (SRB), Breast Cancer
# MDA-MB231/ATCC = assay: NCI 60 cell line screen (SRB), Breast Cancer; conditions: MDA- (first line of MDA-MB231/ATCC)
# [1] = tested on: MB231/ATCC (second line of the wrapped label, with values of its own); assay: NCI 60 cell line screen (SRB), Breast Cancer
# MDA-MB-435 = assay: NCI 60 cell line screen (SRB), Breast Cancer
# BT-549 = assay: NCI 60 cell line screen (SRB), Breast Cancer
structure (smiles),measurement,setting,value
CC1=C(C=Cc2cccc(C=CC3=C(C)C4CCC(C)C5CCC6(C)OOC45C(O3)O6)c2)OC2OC3(C)CCC4C(C)CCC1C24OO3 (centres unmarked) [VII-g],Log10TGI,HL-60(TB); PG=0,−7.20 log10M
same,Log10GI50,HL-60(TB); PG=+50,−7.20 log10M
same,Log10GI50,"HL-60(TB); Table IV (LC50, PG=−50)",>−4.00 log10M
same,Log10TGI,RPMI-8226; PG=0,−7.25 log10M
same,Log10GI50,RPMI-8226; PG=+50,−7.25 log10M
same,Log10GI50,"RPMI-8226; Table IV (LC50, PG=−50)",>−4.00 log10M
same,Log10TGI,EKVX; PG=0,>−4.00 log10M
same,Log10GI50,EKVX; PG=+50,−7.17 log10M
same,Log10GI50,"EKVX; Table IV (LC50, PG=−50)",>−4.00 log10M
same,Log10TGI,NCI-H226; PG=0,>−4.00 log10M
same,Log10GI50,NCI-H226; PG=+50,−4.91 log10M
same,Log10GI50,"NCI-H226; Table IV (LC50, PG=−50)",>−4.00 log10M
same,Log10TGI,NCI-H23; PG=0,−4.06 log10M
same,log10 GI50 or LC50 (see conditions),NCI-H23; PG=+50,−5.92 log10M
same,log10 GI50 or LC50 (see conditions),"NCI-H23; Table IV (LC50, PG=−50)",>−4.00 log10M
same,Log10TGI,NCI-H322M; PG=0,−4.87 log10M
same,Log10GI50,NCI-H322M; PG=+50,−7.42 log10M
same,Log10TGI,NCI-H460; PG=0,>−4.00 log10M
same,Log10 GI50 or Log10 LC50,NCI-H460; PG=+50,−5.13 log10M
same,Log10TGI,NCI-H522; PG=0,>−4.00 log10M
same,Log10GI50,NCI-H522; PG=+50,−6.99 log10M
same,Log10GI50,"NCI-H522; Table IV (LC50, PG=−50)",>−4.00 log10M
same,Log10TGI,COLO 205; PG=0,−6.82 log10M
same,Log10GI50,COLO 205; PG=+50,−7.50 log10M
same,Log10GI50,"COLO 205; Table IV (LC50, PG=−50)",−4.96 log10M
same,Log10TGI,HCT-116; PG=0,>−4.00 log10M
same,"Log10 GI50 (PG=+50) or Log10 LC50 (PG=−50), as given per row condition",HCT-116; PG=+50,−7.13 log10M
same,"Log10 GI50 (PG=+50) or Log10 LC50 (PG=−50), as given per row condition","HCT-116; Table IV (LC50, PG=−50)",>−4.00 log10M
same,Log10TGI,HCT-15; PG=0,−4.88 log10M
same,"log10 GI50 (PG=+50) or LC50 (PG=−50), per row condition",HCT-15; PG=+50,−7.05 log10M
same,"log10 GI50 (PG=+50) or LC50 (PG=−50), per row condition","HCT-15; Table IV (LC50, PG=−50)",>−4.00 log10M
same,Log10TGI,KM12; PG=0,>−4.00 log10M
same,Log10GI50,KM12; PG=+50,−7.27 log10M
same,Log10GI50,"KM12; Table IV (LC50, PG=−50)",>−4.00 log10M
same,Log10TGI,SW-620; PG=0,>−4.00 log10M
same,Log10GI50,SW-620; PG=+50,−7.22 log10M
same,Log10TGI,HCC-2998; PG=0,>−4.00 log10M
same,Log10GI50,HCC-2998; PG=+50,−6.12 log10M
same,Log10TGI,SF-268; PG=0,>−4.00 log10M
same,Log10GI50,SF-268; PG=+50,−6.42 log10M
same,Log10TGI,SF-295; PG=0,>−4.00 log10M
same,Log10GI50,SF-295; PG=+50,−6.48 log10M
same,Log10 GI50 (PG=+50) or LC50 (PG=−50),SNB-75; PG=+50,−6.45 log10M
same,Log10 GI50 (PG=+50) or LC50 (PG=−50),"SNB-75; Table IV (LC50, PG=−50)",>−4.00 log10M
same,Log10TGI,LOX IMVI; PG=0,−5.06 log10M
same,Log10GI50,LOX IMVI; PG=+50,−7.07 log10M
same,Log10GI50,"LOX IMVI; Table IV (LC50, PG=−50)",>−4.00 log10M
same,Log10TGI,MALME-3M; PG=0,−4.24 log10M
same,Log10GI50,MALME-3M; PG=+50,−6.60 log10M
same,Log10GI50,"MALME-3M; Table IV (LC50, PG=−50)",>−4.00 log10M
same,Log10TGI,UACC-62; PG=0,>−4.00 log10M
same,Log10GI50,UACC-62; PG=+50,−5.46 log10M
same,Log10GI50,"UACC-62; Table IV (LC50, PG=−50)",>−4.00 log10M
same,Log10TGI,SK-MEL-5; PG=0,−5.16 log10M
same,Log10 GI50 or LC50,SK-MEL-5; PG=+50,−6.71 log10M
same,Log10 GI50 or LC50,"SK-MEL-5; Table IV (LC50, PG=−50)",>−4.00 log10M
same,Log10TGI,IGROVI; PG=0,−4.21 log10M
same,Log10GI50,IGROVI; PG=+50,−5.16 log10M
same,Log10GI50,"IGROVI; Table IV (LC50, PG=−50)",>−4.00 log10M
same,Log10TGI,OVCAR-3,>−4.00 log10M
same,Log10GI50,"OVCAR-4; OVCAR-4, PG=+50",−6.96 log10M
same,Log10GI50,"OVCAR-4; Table IV (LC50, PG=−50), OVCAR−4",>−4.00 log10M
same,Log10TGI,OVCAR-5; PG=0,>−4.00 log10M
same,Log10GI50,OVCAR-5; PG=+50,−6.58 log10M
same,Log10GI50,"OVCAR-5; Table IV (LC50, PG=−50)",>−4.00 log10M
same,Log10TGI,OVCAR-8; PG=0,>−4.00 log10M
same,Log10GI50,OVCAR-8; PG=+50,−6.70 log10M
same,Log10GI50,"OVCAR-8; Table IV (LC50, PG=−50)",>−4.00 log10M
same,Log10TGI,SK-OV-3; PG=0,>−4.00 log10M
same,Log10GI50,SK-OV-3; PG=+50,−5.05 log10M
same,Log10GI50,"SK-OV-3; Table IV (LC50, PG=−50)",>−4.00 log10M
same,Log10TGI,786-0; PG=0,>−4.00 log10M
same,Log10GI50,786-0; PG=+50,−6.10 log10M
same,Log10GI50,"786-0; Table IV (LC50, PG=−50)",>−4.00 log10M
same,Log10GI50,CAKI-1; PG=+50,−6.22 log10M
same,Log10GI50,"CAKI-1; Table IV (LC50, PG=−50)",>−4.00 log10M
same,Log10TGI,TK-10; PG=0,>−4.00 log10M
same,Log10GI50,TK-10; PG=+50,−6.48 log10M
same,Log10GI50,"TK-10; Table IV (LC50, PG=−50)",>−4.00 log10M
same,Log10TGI,MCF7; PG=0,>−4.00 log10M
same,Log10GI50,MCF7; PG=+50,−6.63 log10M
same,Log10GI50,"MCF7; Table IV (LC50, PG=−50)",>−4.00 log10M
same,Log10TGI,NCI/ADR-RES; PG=0,>−4.00 log10M
same,Log10GI50,NCI/ADR-RES; PG=+50,−5.27 log10M
same,Log10GI50,"NCI/ADR-RES; Table IV (LC50, PG=−50)",>−4.00 log10M
same,Log10TGI,MDA-MB231/ATCC; PG=0,−4.74 log10M
same,Log10 GI50 or LC50 (per conditions),MDA-MB231/ATCC; PG=+50,−6.07 log10M
same,Log10 GI50 or LC50 (per conditions),"MDA-MB231/ATCC; Table IV (LC50, PG=−50)",>−4.00 log10M
same,Log10GI50,[1]; PG=+50,−7.10 log10M
same,Log10GI50,"[1]; Table IV (LC50, PG=−50)",>−4.00 log10M
same,Log10TGI,"MDA-MB-435; MDA-MB-435, PG=0",>−4.00 log10M
same,Log10GI50,"MDA-MB-435; MDA-MB−435, PG=+50",−6.57 log10M
same,Log10GI50,"MDA-MB-435; Table IV (LC50, PG=−50), MDA-MB-435",>−4.00 log10M
same,Log10GI50,BT-549; PG=+50,−7.51 log10M
same,Log10GI50,"BT-549; Table IV (LC50, PG=−50)",>−4.00 log10M
